Here are results for three compounds from patent publication US8124637B2, “Anthra [1, 2-d]imidazole-6,11-dione derivatives, preparation method and application thereof” (National Defense Medical Center, priority 2010, dated 2012).

The target of data set [1] is T1, telomerase (total cell lysates of lung cancer cell line H1299) (Homo sapiens, UniProt O14746).
T1 construct: As a source of telomerase, the total cell lysates derived from lung cancer cell line H1299 cells were used; endogenous in cells; host or cells: H1299 lung cancer cells (total cell lysate)
T1 sequence (O14746 whole entry): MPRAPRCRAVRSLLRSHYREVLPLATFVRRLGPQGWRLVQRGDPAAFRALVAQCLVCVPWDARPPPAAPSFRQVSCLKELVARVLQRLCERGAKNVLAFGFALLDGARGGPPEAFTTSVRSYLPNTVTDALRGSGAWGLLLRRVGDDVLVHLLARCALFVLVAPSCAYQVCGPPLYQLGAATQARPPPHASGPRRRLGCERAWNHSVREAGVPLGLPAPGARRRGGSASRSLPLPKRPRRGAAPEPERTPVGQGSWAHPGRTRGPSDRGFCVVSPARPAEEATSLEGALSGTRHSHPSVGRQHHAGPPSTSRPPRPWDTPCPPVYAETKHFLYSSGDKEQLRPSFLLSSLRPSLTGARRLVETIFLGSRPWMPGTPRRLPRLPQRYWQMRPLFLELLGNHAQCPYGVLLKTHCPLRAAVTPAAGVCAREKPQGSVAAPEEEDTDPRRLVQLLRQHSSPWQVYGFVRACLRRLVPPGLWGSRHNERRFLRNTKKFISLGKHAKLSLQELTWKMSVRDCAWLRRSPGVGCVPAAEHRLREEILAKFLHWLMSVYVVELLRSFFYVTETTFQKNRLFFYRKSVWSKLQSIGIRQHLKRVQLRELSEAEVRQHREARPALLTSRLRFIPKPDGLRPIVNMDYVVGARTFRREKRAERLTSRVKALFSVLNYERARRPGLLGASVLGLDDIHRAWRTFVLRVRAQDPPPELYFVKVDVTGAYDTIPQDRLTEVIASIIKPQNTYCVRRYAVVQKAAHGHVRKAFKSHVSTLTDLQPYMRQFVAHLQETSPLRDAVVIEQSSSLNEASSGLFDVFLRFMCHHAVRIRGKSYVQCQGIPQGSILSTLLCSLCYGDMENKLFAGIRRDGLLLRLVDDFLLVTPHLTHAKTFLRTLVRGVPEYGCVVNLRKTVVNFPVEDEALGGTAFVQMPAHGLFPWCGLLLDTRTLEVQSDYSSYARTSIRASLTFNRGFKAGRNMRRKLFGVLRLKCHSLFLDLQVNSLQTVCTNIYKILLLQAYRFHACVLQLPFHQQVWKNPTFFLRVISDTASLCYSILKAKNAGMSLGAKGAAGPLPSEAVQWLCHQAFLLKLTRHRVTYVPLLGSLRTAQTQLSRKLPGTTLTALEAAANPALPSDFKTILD
T1 sequence (O60832 whole entry partner): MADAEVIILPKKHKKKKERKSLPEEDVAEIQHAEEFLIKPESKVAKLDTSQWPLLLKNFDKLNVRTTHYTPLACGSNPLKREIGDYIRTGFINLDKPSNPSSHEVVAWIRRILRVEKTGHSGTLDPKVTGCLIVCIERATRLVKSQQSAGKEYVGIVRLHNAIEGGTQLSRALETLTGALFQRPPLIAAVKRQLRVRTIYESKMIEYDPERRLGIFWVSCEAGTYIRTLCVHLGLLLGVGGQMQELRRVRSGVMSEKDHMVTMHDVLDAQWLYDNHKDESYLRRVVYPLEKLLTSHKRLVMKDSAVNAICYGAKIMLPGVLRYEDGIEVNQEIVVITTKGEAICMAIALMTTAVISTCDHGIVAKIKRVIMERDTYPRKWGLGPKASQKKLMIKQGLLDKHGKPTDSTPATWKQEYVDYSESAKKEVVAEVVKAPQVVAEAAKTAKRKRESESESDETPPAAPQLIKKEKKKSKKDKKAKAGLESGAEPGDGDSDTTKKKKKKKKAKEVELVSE
T1 sequence (Q9NX24 whole entry partner): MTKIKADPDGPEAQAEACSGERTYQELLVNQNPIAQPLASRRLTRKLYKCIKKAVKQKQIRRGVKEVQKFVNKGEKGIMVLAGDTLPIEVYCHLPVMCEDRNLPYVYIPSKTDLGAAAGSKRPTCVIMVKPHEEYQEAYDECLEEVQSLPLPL
T1 sequence (Q9NPE3 whole entry partner): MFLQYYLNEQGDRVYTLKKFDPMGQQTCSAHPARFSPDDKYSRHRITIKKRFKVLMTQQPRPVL
T1 sequence (Q9NY12 whole entry partner): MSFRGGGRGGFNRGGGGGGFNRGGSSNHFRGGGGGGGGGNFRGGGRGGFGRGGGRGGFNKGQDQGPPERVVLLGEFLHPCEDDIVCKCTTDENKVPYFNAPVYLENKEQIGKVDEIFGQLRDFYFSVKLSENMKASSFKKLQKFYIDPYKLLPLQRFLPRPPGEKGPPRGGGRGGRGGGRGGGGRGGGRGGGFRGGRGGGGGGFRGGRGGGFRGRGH
Nature of the data set: Telomere repeat amplification protocol (TRAP) assay. As to conditions: preliminary screening at 10 μM, gel. In kind it is biochemical. The procedure: Telomerase activity was detected by a modified version of the general TRAP protocol. Telomerase products were resolved by 10% polyacrylamide gel electrophoresis and visualized by staining with SYBER Green. As a source of telomerase, the total cell lysates derived from lung cancer cell line H1299 cells were used. Protein concentration of the lysates was assayed using Bio-Rad protein assay kit using BSA standards.
In the FIGS. 3A, 3B and FIG. 4, a positive control group (P) used water that had been sterilized three times in the assay; while a negative control group (N) used RNase A (CLONTECH) (5 μL, 0.1 mg/mL) in the assay.
In the positive control group (P), due to the absence of inhibitor, the telomerase could extend the telomere, such that some longer telomere fragments could be observed; while there was not observed in the negative control group (N). In the result of TRAP assay (FIG. 3A to 3B), compounds with a concentration of 10 μM was used as the preliminary screening. In the gel, standard compound A was 1,2-diaminoanthraquinone, D was doxorubicin, and M was mitoxantrone.

Data set [2] is described as follows: in vitro. As to conditions: human, Relative MTT viability (%).
Data set [3] relates to UACC-257. Nature of the data set: NCI 60-cell drug screen, one dose. In kind it is cell-based, human. The conditions noted are these: Melanoma UACC-257, 1.00E−5 Molar.

As for `CN1CCN(Cc2nc3ccc4c(c3[nH]2)C(=O)c2ccccc2C4=O)CC1` [CL24, 2-((4-methylpiperazin-1-yl)methyl)-1H-anthra[1,2-d]imidazole-6,11-dione], in data set [1], the “inhibition effect/activity of telomerase (TRAP)” value is “more significant inhibition effect/activity of telomerase”.
On to `O=C1c2ccccc2C(=O)c2c1ccc1nc(CN3CCN(c4ccccc4)CC3)[nH]c21` [CL27, 2-((4-phenylpiperazin-1-yl)methyl)-1H-anthra[1,2-d]imidazole-6,11-dione], for which, in data set [2], the viability (commonly a per cent measure of how many cells are alive, often set against a control) at 72 h, 1 µM stood at 90.2 ± 3.86%; the viability at 72 h, 10 µM is 54.4%; the viability at 72 h, 100 µM was 18.1%.
On to `O=C1c2ccccc2C(=O)c2c1ccc1nc(CN3CCN(c4ccccn4)CC3)[nH]c21` [CL28, 2-((4-(pyridin-2-yl)piperazin-1-yl)methyl)-1H-anthra[1,2-d]imidazole-6,11-dione], for which the “Growth Percent” value in data set [3] is recorded as 88.91%.
